In PubChem BioAssay AID248 (DTP/NCI, 2004):
Several values for one entry are separate records, joined by “and”; a condition that tells them apart may be missing. Equal entries are not always repeated. Inconclusive results and toxic doses are left out.

Test system: L1210 leukemia ip in BDF1 mice, survival T/C
Experiment: NCI In Vivo Anticancer Drug Screen. Data for tumor model L1210 Leukemia (intraperitoneal) in B6D2F1 (BDF1) mice
Conditions: endpoint: mean survival time, higher = longer survival
In short: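 Ratio derived from survival: compound-dosed mice over vehicle-dosed mice, all bearing a transplantable tumor.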

[1] = dose: 50.0 mg/kg/injection, schedule: Q01DX001 (ip), vehicle: saline
[2] = dose: 100.0 mg/kg/injection, schedule: Q01DX001 (ip), vehicle: saline
[3] = dose: 200.0 mg/kg/injection, schedule: Q01DX001 (ip), vehicle: saline
[4] = dose: 400.0 mg/kg/injection, schedule: Q01DX001 (ip), vehicle: saline
[5] = dose: 100.0 mg/kg/injection, schedule: Q01DX001 (ip), vehicle: carboxymethylcellulose (CMC)

CN(C)c1ccc(/C=N/Nc2nnc(N/N=C/c3ccc(N(C)C)cc3Cl)c3ccccc23)c(Cl)c1
T/C [1]: 102 % of control
T/C [2]: 100 % of control
T/C [3]: 100 % of control
T/C [4]: 92 % of control

O=C(CCCC(=O)N/N=C/c1cccc(O)c1)N/N=C\c1cccc(O)c1
T/C [1]: 98 % of control
T/C [2]: 104 % of control
T/C [3]: 98 % of control
T/C [4]: 92 % of control

Cc1c(C)c2c(C#N)c3ccccc3nc2c2ccccc12
T/C (dose: 50.0 mg/kg/injection, schedule: Q04DX003 (ip), vehicle: Klucel (hydroxypropylcellulose) (HPC)): 102 % of control
T/C (dose: 100.0 mg/kg/injection, schedule: Q04DX003 (ip), vehicle: Klucel (hydroxypropylcellulose) (HPC)): 102 % of control
T/C (dose: 200.0 mg/kg/injection, schedule: Q04DX003 (ip), vehicle: Klucel (hydroxypropylcellulose) (HPC)): 107 % of control
T/C (dose: 400.0 mg/kg/injection, schedule: Q04DX003 (ip), vehicle: Klucel (hydroxypropylcellulose) (HPC)): 103 % of control

COc1ccc(NC(=O)Oc2cccc(C(F)(F)F)c2)c(Cl)c1
T/C (dose: 100.0 mg/kg/injection, schedule: Q01DX009 (ip), vehicle: saline with Tween-80): 96 % of control
T/C (dose: 200.0 mg/kg/injection, schedule: Q01DX009 (ip), vehicle: saline with Tween-80): 97 % of control
T/C (dose: 400.0 mg/kg/injection, schedule: Q01DX009 (ip), vehicle: saline with Tween-80): 94 % of control

CN(C)[C@@H]1C(=O)C(C(=O)NCNc2nc(=S)c3[nH]cnc3[nH]2)=C(O)[C@@]2(O)C(=O)C3=C(O)c4c(O)cccc4[C@@](C)(O)[C@H]3C[C@@H]12
T/C (dose: 75.0 mg/kg/injection, schedule: Q01DX Z (ip), vehicle: carboxymethylcellulose (CMC)): 119 % of control
T/C (dose: 125.0 mg/kg/injection, schedule: Q01DX Z (ip), vehicle: carboxymethylcellulose (CMC)): 121 % of control
T/C (dose: 250.0 mg/kg/injection, schedule: Q01DX Z (ip), vehicle: carboxymethylcellulose (CMC)): 95 % of control

CN(C(=O)c1cccc([N+](=O)[O-])c1)C1CCCCC1
T/C (dose: 100.0 mg/kg/injection, schedule: Q01DX009 (ip), vehicle: Klucel (hydroxypropylcellulose) (HPC)): 93 % of control
T/C (dose: 200.0 mg/kg/injection, schedule: Q01DX009 (ip), vehicle: Klucel (hydroxypropylcellulose) (HPC)): 100 % of control
T/C (dose: 400.0 mg/kg/injection, schedule: Q01DX009 (ip), vehicle: Klucel (hydroxypropylcellulose) (HPC)): 96 % of control

O=c1ncc2[nH]c(I)nc2[nH]1
T/C [5]: 96 % of control

Oc1ccccc1OCCOCCCl
T/C (dose: 100.0 mg/kg/injection, schedule: Q04DX002 (sc), vehicle: olive oil, sesame oil, peanut oil): 93 % of control
T/C (dose: 200.0 mg/kg/injection, schedule: Q04DX002 (sc), vehicle: olive oil, sesame oil, peanut oil): 101 % of control
T/C (dose: 400.0 mg/kg/injection, schedule: Q04DX002 (sc), vehicle: olive oil, sesame oil, peanut oil): 246 % of control

CCOC(=O)NS(=O)(=O)Nc1ccccc1
T/C [5]: 100 % of control
T/C (dose: 200.0 mg/kg/injection, schedule: Q01DX001 (ip), vehicle: carboxymethylcellulose (CMC)): 109 % of control
T/C (dose: 400.0 mg/kg/injection, schedule: Q01DX001 (ip), vehicle: carboxymethylcellulose (CMC)): 95 % of control

O=[N+]([O-])c1ccc(S(=O)(=O)c2ccccc2)c([N+](=O)[O-])c1
T/C (dose: 6.0 mg/kg/injection, schedule: Q01DX001 (ip), vehicle: saline): 93 % of control
T/C (dose: 12.0 mg/kg/injection, schedule: Q01DX001 (ip), vehicle: saline): 100 % of control
T/C (dose: 25.0 mg/kg/injection, schedule: Q01DX001 (ip), vehicle: saline): 91 % of control
T/C [1]: 100 % of control and 105 % of control
T/C [3]: 95 % of control

COC(=O)c1ccc(N(C)CCC(=O)COC(C)=O)cc1
T/C [2]: 103 % of control
T/C [3]: 97 % of control
T/C [4]: 95 % of control

O=C(NCc1ccc(Cl)cc1)NC1CCCCC1
T/C (dose: 100.0 mg/kg/injection, schedule: Q04DX002 (ip), vehicle: Klucel (hydroxypropylcellulose) (HPC)): 100 % of control
T/C (dose: 200.0 mg/kg/injection, schedule: Q04DX002 (ip), vehicle: Klucel (hydroxypropylcellulose) (HPC)): 100 % of control
T/C (dose: 400.0 mg/kg/injection, schedule: Q04DX002 (ip), vehicle: Klucel (hydroxypropylcellulose) (HPC)): 106 % of control

Cn1nnc(CC[N+]2(C)CCOCC2)n1
T/C (dose: 100.0 mg/kg/injection, schedule: Q04DX003 (ip), vehicle: saline): 94 % of control
T/C (dose: 200.0 mg/kg/injection, schedule: Q04DX003 (ip), vehicle: saline): 96 % of control
